From PubChem BioAssay AID302 (DTP/NCI, 2004)
Several values for one entry are separate records, joined by “and”; a condition that tells them apart may be missing. Identical values can stand only once. Inconclusive results and toxic doses are left out. How the source made its calls: active means survival T/C of 150% or more; inactive means T/C below 125% in these data.

System: BALB/c mice, Madison 109 lung carcinoma i.m., survival
Assay: NCI In Vivo Anticancer Drug Screen. Data for tumor model Madison 109 Lung Carcinoma (intramuscular) in BALB/CM mice
Conditions: endpoint: median survival time, schedule: Q01DX009 (ip), higher = longer survival
Procedure: The antitumor activity of compounds was measured in mice bearing transplantable tumors. Survival or tumor size were measured and the results are expressed as the measurement made in the treated group (T) divided by the measurement made in the vehicle treated control group (C). The tumor model used in this assay is Madison 109 Lung Carcinoma (intramuscular) in BALB/CM mice

[1] = dose: 10.0 mg/kg/injection, vehicle: saline with Tween-80
[2] = dose: 20.0 mg/kg/injection, vehicle: saline with Tween-80

Measured: T/C

CC1=C(/C=C/C(C)=C/C=C/C(C)=C/C(=O)O)C(C)(C)CCC1
inactive: dose: 0.5 mg/kg/injection, vehicle: saline 107 % of control | dose: 1.0 mg/kg/injection, vehicle: saline 110 % of control | dose: 2.0 mg/kg/injection, vehicle: saline 100 % of control | dose: 4.0 mg/kg/injection, vehicle: saline 93 % of control and 94 % of control | dose: 8.0 mg/kg/injection, vehicle: saline 98 % of control and 100 % of control | dose: 16.0 mg/kg/injection, vehicle: saline 108 % of control | dose: 32.0 mg/kg/injection, vehicle: saline 104 % of control

c1ccc([C@H]2CN3CCSC3=N2)cc1
inactive: dose: 5.0 mg/kg/injection, vehicle: saline 94 % of control | dose: 10.0 mg/kg/injection, vehicle: saline 96 % of control | dose: 20.0 mg/kg/injection, vehicle: saline 103 % of control

CCN(CC)CCCC(C)Nc1c2ccc(Cl)cc2nc2ccc(OC)cc12 (stereo not drawn)
inactive: dose: 8.0 mg/kg/injection, vehicle: saline with Tween-80 106 % of control | dose: 16.0 mg/kg/injection, vehicle: saline with Tween-80 114 % of control | dose: 32.0 mg/kg/injection, vehicle: saline with Tween-80 104 % of control | dose: 64.0 mg/kg/injection, vehicle: saline with Tween-80 107 % of control

COc1cccc2c1C(=O)c1c(O)c3c(c(O)c1C2=O)CC(O)(C(=O)CO)CC3OC1CC(N)C(O)C(C)O1 (stereo not drawn)
inactive: [1] 100 % of control | [2] 108 % of control

C[C@]12C=CC(=O)C=C1CC[C@@H]1[C@@H]2C(=O)C[C@@]2(C)[C@H]1CC[C@]2(O)C(=O)CO
inactive: dose: 5.0 mg/kg/injection, vehicle: saline with Tween-80 95 % of control | [1] 98 % of control | [2] 97 % of control | dose: 40.0 mg/kg/injection, vehicle: saline with Tween-80 92 % of control | dose: 80.0 mg/kg/injection, vehicle: saline with Tween-80 92 % of control

CN(C)C=O
inactive: dose: 12.5 mg/kg/injection, vehicle: saline 102 % of control | dose: 25.0 mg/kg/injection, vehicle: saline 101 % of control and 105 % of control | dose: 50.0 mg/kg/injection, vehicle: saline 101 % of control and 115 % of control | dose: 100.0 mg/kg/injection, vehicle: saline 92 % of control and 101 % of control and 120 % of control | dose: 200.0 mg/kg/injection, vehicle: saline 96 % of control and 106 % of control | dose: 800.0 mg/kg/injection, vehicle: saline 116 % of control and 120 % of control | dose: 1600.0 mg/kg/injection, vehicle: saline 107 % of control
